# Measurements reported in patent US20250353855A1, “HETEROCYCLIC AND HETEROARYL COMPOUNDS FOR TREATING HUNTINGTON'S DISEASE” (PTC THERAPEUTICS, INC., priority 2022, published 2025).
# pIC50: −log10 of the molar value.
# Tested on: Endogenous Huntingtin Protein
# Experiment: Endogenous Huntingtin Protein Assay (ELISA-based MSD electrochemiluminescence)
# Type: cell-based
# Details: MSD plates coated with MW1 (expanded polyglutamine) or MAB2166 capture antibody; lysates
# Procedure, shortened: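 Electrochemiluminescence sandwich ELISA for endogenous huntingtin: capture with MW1 (expanded polyglutamine) or MAB2166 antibody at 1 μg/mL, samples incubated overnight at 4° C. Detection with rabbit monoclonal #5656S then goat anti-rabbit SULFO-TAG antibody (each 0.25 μg/mL, 1 h room temperature), read on MSD imager.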
row,SMILES,pIC50
1,"COc1cnc2cc(-c3cc4c(nn3)N([C@H]3CC(C)(C)NC(C)(C)[C@H]3F)CC4)c(O)cc2n1 [Cpd 84, 7-{7-[(3S,4S)-3-fluoro-2,2,6,6-tetramethylpiperidin-4-yl]-6,7-dihydro-5H-pyrrolo[2,3-c]pyridazin-3-yl}-3-methoxyquinoxalin-6-ol]",> 7.00

# Same assay, conditions: MSD plates coated with MW1 (expanded polyglutamine) or MAB2166 capture antibody; lysates; read-out: IC50
row,SMILES,pIC50
1,"CCc1nc2cc(-c3cc4ccn([C@H]5CC(C)(C)NC(C)(C)[C@H]5F)c4nn3)c(O)cc2s1 [Cpd 14, 2-ethyl-5-{7-[(3S,4S)-3-fluoro-2,2,6,6-tetramethylpiperidin-4-yl]-7H-pyrrolo[2,3-c]pyridazin-3-yl}-1,3-benzothiazol-6-ol]",> 7.00
2,"Cc1nc2cc(-c3cc4c(nn3)N(C3CCNC5(CCC5)[C@@H]3F)CC4)c(O)cc2s1 (single isomer, unassigned) [Cpd 74, 5-{7-[(8R,9R)-9-fluoro-5-azaspiro[3.5]nonan-8-yl]-6,7-dihydro-5H-pyrrolo[2,3-c]pyridazin-3-yl}-2-methyl-1,3-benzothiazol-6-ol or 5-{7-[(8S,9S)-9-fluoro-5-azaspiro[3.5]nonan-8-yl]-6,7-dihydro-5H-pyrrolo[2,3-c]pyridazin-3-yl}-2-methyl-1,3-benzothiazol-6-ol]",> 7.00
3,"CC1(C)C[C@H](N2CCc3cc(-c4cc5c(=O)ccoc5cc4O)nnc32)[C@H](F)C(C)(C)N1 [Cpd 69, 6-{7-[(3S,4S)-3-fluoro-2,2,6,6-tetramethylpiperidin-4-yl]-6,7-dihydro-5H-pyrrolo[2,3-c]pyridazin-3-yl}-7-hydroxy-4H-1-benzopyran-4-one]",> 7.00
4,"Cc1nc2cc(O)c(-c3cc4c(nn3)N([C@@H]3CCNC(C)(C)[C@@H]3F)CC4)cc2s1 (single isomer, unassigned) [Cpd 63, 6-{7-[(3R,4R)-3-fluoro-2,2-dimethylpiperidin-4-yl]-6,7-dihydro-5H-pyrrolo[2,3-c]pyridazin-3-yl}-2-methyl-1,3-benzothiazol-5-ol or 6-{7-[(3S,4S)-3-fluoro-2,2-dimethylpiperidin-4-yl]-6,7-dihydro-5H-pyrrolo[2,3-c]pyridazin-3-yl}-2-methyl-1,3-benzothiazol-5-ol]",> 7.00
5,"Cn1nnc2cc(-c3cc4nnn(C5CC(C)(C)NC6(CC6)C5)c4nn3)c(O)cc21 (racemic) [Cpd 7, 5-[rac-3-(5,5-dimethyl-4-azaspiro[2.5]octan-7-yl)-3H-[1,2,3]triazolo[4,5-c]pyridazin-6-yl]-1-methyl-1H-benzotriazol-6-ol]",6.00 to 6.30
6,"Cc1cnc2cc(-c3cc4c(nn3)N([C@H]3CC(C)(C)NC(C)(C)[C@H]3F)CC4)c(O)cc2n1 [Cpd 56, 7-{7-[(3S,4S)-3-fluoro-2,2,6,6-tetramethylpiperidin-4-yl]-6,7-dihydro-5H-pyrrolo[2,3-c]pyridazin-3-yl}-3-methylquinoxalin-6-ol]",> 7.00
7,"CC1(C)C[C@H](N2CCc3cc(-c4cc5nsnc5cc4O)nnc32)[C@H](F)C(C)(C)N1 [Cpd 85, 6-{7-[(3S,4S)-3-fluoro-2,2,6,6-tetramethylpiperidin-4-yl]-6,7-dihydro-5H-pyrrolo[2,3-c]pyridazin-3-yl}-2,1,3-benzothiadiazol-5-ol]",> 7.00
8,"Cc1nc2cc(O)c(-c3cc4c(nn3)N(C3CC5(CC5)NC5(CC5)C3)CC4)cc2o1 (stereo not drawn) [Cpd 72, 6-[7-(4-azadispiro[2.1.25.33]decan-9-yl)-6,7-dihydro-5H-pyrrolo[2,3-c]pyridazin-3-yl]-2-methyl-1,3-benzoxazol-5-ol]",> 7.00
9,"Cc1ccc2cc(-c3cc4ccn([C@H]5CC(C)(C)NC(C)(C)[C@H]5F)c4nn3)c(O)cc2n1 [Cpd 32, 6-{7-[(3S,4S)-3-fluoro-2,2,6,6-tetramethylpiperidin-4-yl]-7H-pyrrolo[2,3-c]pyridazin-3-yl}-2-methylquinolin-7-ol]",> 7.00
10,"Cn1cc2cc(-c3cc4c(nn3)N([C@H]3CC(C)(C)NC(C)(C)[C@H]3F)CC4)c(O)c(F)c2n1 [Cpd 101, 7-fluoro-5-{7-[(3S,4S)-3-fluoro-2,2,6,6-tetramethylpiperidin-4-yl]-6,7-dihydro-5H-pyrrolo[2,3-c]pyridazin-3-yl}-2-methyl-2H-indazol-6-ol]",> 7.00
11,"Cn1nnc2cc(O)c(-c3cc4c(nn3)N([C@H]3CC(C)(C)NC(C)(C)[C@H]3F)CC4)cc21 [Cpd 92, 6-{7-[(3S,4S)-3-fluoro-2,2,6,6-tetramethylpiperidin-4-yl]-6,7-dihydro-5H-pyrrolo[2,3-c]pyridazin-3-yl}-1-methyl-1H-benzotriazol-5-ol]",> 7.00
12,"CC1(C)C[C@H](n2ccc3cc(-c4cc5ncccc5cc4O)nnc32)[C@H](F)C(C)(C)N1 [Cpd 17, 7-{7-[(3S,4S)-3-fluoro-2,2,6,6-tetramethylpiperidin-4-yl]-7H-pyrrolo[2,3-c]pyridazin-3-yl}quinolin-6-ol]",> 7.00
13,"CC1(C)C[C@H](n2ccc3cc(-c4cc5oc(=O)[nH]c5cc4O)nnc32)[C@H](F)C(C)(C)N1 [Cpd 36, 6-{7-[(3S,4S)-3-fluoro-2,2,6,6-tetramethylpiperidin-4-yl]-7H-pyrrolo[2,3-c]pyridazin-3-yl}-5-hydroxy-1,3-benzoxazol-2(3H)-one]",> 7.00
14,"Cc1cc2cc(-c3cc4c(nn3)N([C@H]3CC(C)(C)NC(C)(C)[C@H]3F)CC4)c(O)cc2oc1=O [Cpd 73, 6-{7-[(3S,4S)-3-fluoro-2,2,6,6-tetramethylpiperidin-4-yl]-6,7-dihydro-5H-pyrrolo[2,3-c]pyridazin-3-yl}-7-hydroxy-3-methyl-2H-1-benzopyran-2-one]",> 7.00
15,"Cc1cc(=O)oc2cc(O)c(-c3cc4c(nn3)N([C@H]3CCNC5(CC5)C3)CC4)cc12 [Cpd 66, 6-{7-[(7S)-4-azaspiro[2.5]octan-7-yl]-6,7-dihydro-5H-pyrrolo[2,3-c]pyridazin-3-yl}-7-hydroxy-4-methyl-2H-1-benzopyran-2-one]",> 7.00
16,"COc1nc2cc(O)c(-c3cc4c(nn3)N([C@H]3CC(C)(C)NC(C)(C)[C@H]3F)CC4)cc2s1 [Cpd 97, 6-{7-[(3S,4S)-3-fluoro-2,2,6,6-tetramethylpiperidin-4-yl]-6,7-dihydro-5H-pyrrolo[2,3-c]pyridazin-3-yl}-2-methoxy-1,3-benzothiazol-5-ol]",> 7.00
17,"Cn1nc2cc(O)c(-c3cc4ccn([C@H]5CC(C)(C)NC(C)(C)[C@H]5F)c4nn3)cc2n1 [Cpd 37, 6-{7-[(3S,4S)-3-fluoro-2,2,6,6-tetramethylpiperidin-4-yl]-7H-pyrrolo[2,3-c]pyridazin-3-yl}-2-methyl-2H-benzotriazol-5-ol]",> 7.00
18,"O=c1ccc2cc(-c3cc4c(nn3)N([C@H]3CCNC5(CC5)C3)CC4)c(O)cc2o1 [Cpd 59, 6-{7-[(7S)-4-azaspiro[2.5]octan-7-yl]-6,7-dihydro-5H-pyrrolo[2,3-c]pyridazin-3-yl}-7-hydroxy-2H-1-benzopyran-2-one]",> 7.00
19,"CC1(C)C[C@H](N2CCc3cc(-c4cc5ccncc5cc4O)nnc32)[C@H](F)C(C)(C)N1 [Cpd 70, 6-{7-[(3S,4S)-3-fluoro-2,2,6,6-tetramethylpiperidin-4-yl]-6,7-dihydro-5H-pyrrolo[2,3-c]pyridazin-3-yl}isoquinolin-7-ol]",> 7.00
20,"Cc1nc2cc(O)c(-c3cc4c(nn3)N(C3CC5(CC5)NC5(CC5)C3)CC4)cc2s1 (stereo not drawn) [Cpd 71, 6-[7-(4-azadispiro[2.1.25.33]decan-9-yl)-6,7-dihydro-5H-pyrrolo[2,3-c]pyridazin-3-yl]-2-methyl-1,3-benzothiazol-5-ol]",> 7.00
